From patent US20220249463A1, “METHODS OF ALTERING CARDIAC REMODELING USING COMPOUNDS THAT PROMOTE GLUCOSE OXIDATION” (IMBRIA PHARMACEUTICALS, INC., priority 2019, published 2022)

Tests used:
TAC mice [1] = experiment: TAC mice: echocardiography; assay type: in vivo
[2] = system: Glycine, Strychnine-Sensitive; assay type: binding, rat; conditions: 10 μM CV-8814
Glutamate, Kainate = assay type: binding, rat; conditions: 10 μM CV-8814
Nicotinic Acetylcholine = assay type: binding, human; conditions: 10 μM CV-8814
Transporter, Adenosine = assay type: binding, guinea pig; conditions: 10 μM CV-8814
[3] = system: Protein Serine/Threonine Kinase, PKC, Non-selective; assay type: biochemical, rat; conditions: 10 μM CV-8814
[4] = system: Calcium Channel L-Type, Dihydropyridine; assay type: binding, rat; conditions: 10 μM CV-8814
[5] = system: GABAA, Flunitrazepam, Central; assay type: binding, rat; conditions: 10 μM CV-8814
[6] = system: GABAA, Chloride Channel, TBOB; assay type: binding, rat; conditions: 10 μM CV-8814
[7] = system: ATPase, Na^+/K^+, pig heart; assay type: biochemical; conditions: 10 μM CV-8814
[8] = system: Calcium Channel L-Type, Phenylalkylamine; assay type: binding, rat; conditions: 10 μM CV-8814
[9] = system: GABAA, Ro-15-1788, Hippocampus; assay type: binding, rat; conditions: 10 μM CV-8814
Glutamate, NMDA, Agonism = assay type: binding, rat; conditions: 10 μM CV-8814
Transporter, GABA = assay type: binding, rat; conditions: 10 μM CV-8814
TAC mice [10] = experiment: TAC mice, six weeks treatment: heart weight and heart weight/body weight; assay type: in vivo; conditions: 6 weeks
[11] = system: Glutamate, NMDA, Phencyclidine; assay type: binding, rat; conditions: 10 μM CV-8814
Potassium Channel [KATP] = Potassium Channel [KATP] (Cricetus cricetus, UniProt Q09427); assay type: binding, hamster; conditions: 10 μM CV-8814
Potassium Channel [KATP], sequence (Q09427 whole entry): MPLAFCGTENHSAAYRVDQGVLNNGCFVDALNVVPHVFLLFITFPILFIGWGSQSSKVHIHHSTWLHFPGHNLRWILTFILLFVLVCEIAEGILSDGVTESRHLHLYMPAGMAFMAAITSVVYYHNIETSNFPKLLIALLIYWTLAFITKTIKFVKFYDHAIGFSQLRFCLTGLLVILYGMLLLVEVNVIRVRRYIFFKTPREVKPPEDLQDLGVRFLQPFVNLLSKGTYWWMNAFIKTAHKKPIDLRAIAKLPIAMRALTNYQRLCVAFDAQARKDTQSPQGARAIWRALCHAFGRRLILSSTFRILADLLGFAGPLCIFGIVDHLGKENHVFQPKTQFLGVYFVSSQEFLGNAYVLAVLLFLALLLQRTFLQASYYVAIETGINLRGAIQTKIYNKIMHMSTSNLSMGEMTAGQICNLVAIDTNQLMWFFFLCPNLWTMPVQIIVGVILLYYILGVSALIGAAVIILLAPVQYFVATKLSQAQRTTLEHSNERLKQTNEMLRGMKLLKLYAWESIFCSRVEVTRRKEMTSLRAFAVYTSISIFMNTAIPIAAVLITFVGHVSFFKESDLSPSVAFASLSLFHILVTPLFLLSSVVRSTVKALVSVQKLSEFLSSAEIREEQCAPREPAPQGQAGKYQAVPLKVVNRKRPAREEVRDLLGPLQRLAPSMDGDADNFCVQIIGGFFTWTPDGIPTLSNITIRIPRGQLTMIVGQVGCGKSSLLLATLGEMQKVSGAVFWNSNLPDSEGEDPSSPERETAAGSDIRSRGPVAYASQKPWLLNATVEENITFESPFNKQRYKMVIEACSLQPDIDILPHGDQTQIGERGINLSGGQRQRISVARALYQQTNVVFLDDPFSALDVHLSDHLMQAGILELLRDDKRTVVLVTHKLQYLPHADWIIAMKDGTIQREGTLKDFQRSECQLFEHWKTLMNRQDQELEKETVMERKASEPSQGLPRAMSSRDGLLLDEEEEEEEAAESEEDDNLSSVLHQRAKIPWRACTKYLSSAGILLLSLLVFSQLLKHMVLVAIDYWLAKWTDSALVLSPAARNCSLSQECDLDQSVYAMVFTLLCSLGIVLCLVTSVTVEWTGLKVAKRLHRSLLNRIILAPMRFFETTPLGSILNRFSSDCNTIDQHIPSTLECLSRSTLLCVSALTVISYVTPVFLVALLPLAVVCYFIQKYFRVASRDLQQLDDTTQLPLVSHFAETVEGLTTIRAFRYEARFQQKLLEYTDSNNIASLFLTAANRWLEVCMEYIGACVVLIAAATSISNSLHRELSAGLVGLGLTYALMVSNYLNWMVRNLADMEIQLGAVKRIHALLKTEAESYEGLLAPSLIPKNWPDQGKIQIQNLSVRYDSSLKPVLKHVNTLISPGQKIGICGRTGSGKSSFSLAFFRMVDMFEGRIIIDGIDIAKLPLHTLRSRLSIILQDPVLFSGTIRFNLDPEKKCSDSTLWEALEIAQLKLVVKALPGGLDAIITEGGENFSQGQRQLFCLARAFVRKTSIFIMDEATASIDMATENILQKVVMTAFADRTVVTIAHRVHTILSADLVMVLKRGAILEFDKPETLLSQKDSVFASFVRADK

Phosphodiesterase PDE3 = assay type: biochemical, human; conditions: 10 μM CV-8814
Phosphodiesterase PDE4 = assay type: biochemical, human; conditions: 10 μM CV-8814
Sodium Channel, Site 2 = assay type: binding, rat; conditions: 10 μM CV-8814
TAC mice [12] = experiment: TAC mice: left ventricular pressure with Mikro-tip catheter; assay type: in vivo; conditions: end of 6-week treatment
Glutamate, AMPA = assay type: binding, rat; conditions: 10 μM CV-8814
[13] = system: Calcium Channel L-Type, Benzothiazepine; assay type: binding, rat; conditions: 10 μM CV-8814
[14] = system: Glutamate, NMDA, Polyamine; assay type: binding, rat; conditions: 10 μM CV-8814
[15] = TMZ 6, NA 2.4, CV-8814 7.5, CV-8972 10 mg/kg/day

COc1ccc(CN2CCN(CCO)CC2)c(OC)c1OC [CV-8814, 2-(4-(2,3,4-trimethoxybenzyl)piperazin-1-yl)ethan-1-ol]
EF (in words) (TAC mice [1]; 3-weeks after TAC): significantly increased | IVRT (TAC mice [1]; 3-weeks after TAC): 33 ± 1 ms | IVSd (TAC mice [1]; 3-weeks after TAC): 1.27±0.02 mm | LV mass (TAC mice [1]; 3-weeks after TAC): 152 ± 9 mg | left ventricular FS (TAC mice [1]; 3-weeks after TAC, CV-8814 7.5, CV-8972 10 mg/kg/day): 46%±2% | IVRT (TAC mice [1]; 6-weeks after TAC): 28 ± 2 ms | IVSd (TAC mice [1]; 6-weeks after TAC): 1.26±0.04 mm | left ventricular FS (TAC mice [1]; 6-weeks after TAC (end of the experiment)): 44%±3% | cardiac functions in TAC mice (in words) (TAC mice [1]; conclusion, 6 weeks treatment): improved cardiac functions | EF (in words) (TAC mice [1]; to the end of the study (6 weeks)): protective effect was sustained to the end of the study | Inhibition [2]: < 50% | Inhibition (Glutamate, Kainate): < 50% | Inhibition (Nicotinic Acetylcholine): < 50% | Inhibition (Transporter, Adenosine): < 50% | Inhibition [3]: < 50% | Inhibition [4]: < 50% | Inhibition [5]: < 50% | Inhibition [6]: < 50% | Inhibition [7]: < 50% | Inhibition [8]: < 50% | Inhibition [9]: < 50% | Inhibition (Glutamate, NMDA, Agonism): < 50% | Inhibition (Transporter, GABA): < 50% | cardiac remodeling in TAC mice (in words) (TAC mice [10]; [15]): effectively inhibited cardiac remodeling | cardiac mass (TAC mice [10]; TAC mice, TMZ 6, CV-8814 7.5, CV-8972 10 mg/kg/day, osmotic minipump): 227 ± 12 mg | heart weight to body weight ratio (TAC mice [10]; TAC mice, TMZ 6, NA 2.4, CV-8814 7.5, CV-8972 10 mg/kg/day, subcutaneous osmotic minipump): 7.6 ± 0.4 mg/g | Inhibition [11]: < 50% | inhibition at 10 µM (Potassium Channel [KATP]): < 50% | Inhibition (Phosphodiesterase PDE3): < 50% | Inhibition (Phosphodiesterase PDE4): < 50% | Inhibition (Sodium Channel, Site 2): < 50% | +dp/dtm (TAC mice [12]): 4572±268 mm Hg/sec | left ventricular developed pressure (LVDP) (TAC mice [12]; [15]): 123±8 mm Hg | Inhibition (Glutamate, AMPA): < 50% | Inhibition [13]: < 50% | Inhibition [14]: < 50%
